Measurements reported in patent US12595253B2, “Benzamides of pyrazolylamino-pyrimidinyl derivatives, and compositions and methods thereof” (LYNK PHARMACEUTICALS CO. LTD., priority 2019, dated 2026).

Assays:
CYP1A2 = molecular target: T1, CYP1A2 (Homo sapiens, UniProt P05177); test: CYPs inhibition in pooled human liver microsomes, probe substrate Phenacetin; format: in vitro ADME
T1 construct: 0.2 mg/mL human liver microsomes was pre-incubated in 180 μL reaction mixture; from tissue; host or cells: pooled human liver microsomes
T1 sequence (P05177 1-516): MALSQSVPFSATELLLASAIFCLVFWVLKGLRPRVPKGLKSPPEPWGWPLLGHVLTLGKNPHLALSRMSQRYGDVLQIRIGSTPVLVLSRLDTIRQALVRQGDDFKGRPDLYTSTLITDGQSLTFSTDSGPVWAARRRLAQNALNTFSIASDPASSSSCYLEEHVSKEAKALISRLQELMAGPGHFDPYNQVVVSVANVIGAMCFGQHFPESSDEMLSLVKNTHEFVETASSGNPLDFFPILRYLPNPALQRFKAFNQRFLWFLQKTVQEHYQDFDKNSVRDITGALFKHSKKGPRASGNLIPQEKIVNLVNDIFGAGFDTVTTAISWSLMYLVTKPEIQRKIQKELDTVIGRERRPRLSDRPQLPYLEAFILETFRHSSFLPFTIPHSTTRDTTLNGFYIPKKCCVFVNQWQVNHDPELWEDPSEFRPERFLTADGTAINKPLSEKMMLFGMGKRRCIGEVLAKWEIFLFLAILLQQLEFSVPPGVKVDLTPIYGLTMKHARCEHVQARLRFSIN
Protocol: (§1) The inhibitory potential of test articles in pooled human liver microsomes was evaluated by the method using a cocktail of CYP substrates. […] For the negative control well, the test articles was replaced with 20 μL reaction buffer. After 10 min of pre-incubation at 37° C., 20 μL 10 mM NADPH cofactor was added to the pre-reaction mixtures. After another 10 min incubation, the reaction was stopped by adding 400 μL of ice cold acetonitrile solution containing tolbutamide and labetalol served as internal standards. The incubation mixtures were centrifuged at 4000×g for 20 min, and then the supernatants were analyzed by LC-MS/MS after dilution. SigmaPlot was applied to plot % control activity versus the test compound concentrations, and for non-linear regression analysis of the data. IC50 values of test articles were determined using 3-parameter logistic equation.

CYP2C19 = molecular target: T2, CYP2C19 (Homo sapiens, UniProt P33261); test: CYPs inhibition in pooled human liver microsomes, probe substrate S-mephenytoin; format: in vitro ADME
T2 construct: 0.2 mg/mL human liver microsomes was pre-incubated in 180 μL reaction mixture; from tissue; host or cells: pooled human liver microsomes
T2 sequence (P33261 whole entry): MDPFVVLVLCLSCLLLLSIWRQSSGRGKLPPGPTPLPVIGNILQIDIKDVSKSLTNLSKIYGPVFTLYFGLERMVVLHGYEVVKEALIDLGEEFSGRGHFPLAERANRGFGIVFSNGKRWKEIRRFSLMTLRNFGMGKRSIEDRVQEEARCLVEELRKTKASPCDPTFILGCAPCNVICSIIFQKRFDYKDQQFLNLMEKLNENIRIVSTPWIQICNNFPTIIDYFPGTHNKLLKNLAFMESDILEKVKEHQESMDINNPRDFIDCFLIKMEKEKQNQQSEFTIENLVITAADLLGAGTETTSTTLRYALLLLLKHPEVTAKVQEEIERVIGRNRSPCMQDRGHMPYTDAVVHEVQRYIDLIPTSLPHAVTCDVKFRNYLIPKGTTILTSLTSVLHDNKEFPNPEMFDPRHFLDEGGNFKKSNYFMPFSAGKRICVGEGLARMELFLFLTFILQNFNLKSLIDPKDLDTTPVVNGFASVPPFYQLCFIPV
Protocol: as §1

CYP3A4 = molecular target: T3, CYP3A4 (Homo sapiens, UniProt P08684); test: CYPs inhibition in pooled human liver microsomes, probe substrate Midazolam; format: in vitro ADME
T3 construct: 0.2 mg/mL human liver microsomes was pre-incubated in 180 μL reaction mixture; from tissue; host or cells: pooled human liver microsomes
T3 sequence (P08684 whole entry): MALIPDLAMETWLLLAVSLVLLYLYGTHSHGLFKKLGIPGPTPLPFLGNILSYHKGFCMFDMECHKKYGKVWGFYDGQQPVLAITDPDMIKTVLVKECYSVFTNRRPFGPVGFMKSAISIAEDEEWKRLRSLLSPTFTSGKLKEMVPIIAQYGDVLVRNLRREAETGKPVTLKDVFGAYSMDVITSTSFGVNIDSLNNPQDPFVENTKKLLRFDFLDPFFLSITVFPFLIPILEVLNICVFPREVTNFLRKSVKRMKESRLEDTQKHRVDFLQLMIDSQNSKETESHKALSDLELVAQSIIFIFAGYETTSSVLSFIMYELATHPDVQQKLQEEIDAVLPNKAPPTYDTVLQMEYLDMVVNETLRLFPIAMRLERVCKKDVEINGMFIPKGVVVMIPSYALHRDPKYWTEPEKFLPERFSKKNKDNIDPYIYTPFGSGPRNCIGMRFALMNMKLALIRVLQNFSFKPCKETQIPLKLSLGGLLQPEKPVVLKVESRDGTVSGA
Protocol: as §1

[1] = Liver microsomes study, Phase I stability (RLM); format: in vitro ADME, rat; settings: pH 7.4; rat liver microsomes 0.5 mg/mL, 1 μM test article; read-out: RLM Clint
Outline: (§2)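 Rat or human liver microsomes were incubated with test article, and reactions started with an NADPH regenerating system. Samples at 0, 10, 30 and 90 minutes were quenched with cold acetonitrile and analyzed by LC/MS/MS. T½ and CLint came from the ln(% remaining) versus time slope, scaled by protein concentration.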

[2] = Liver microsomes study, Phase I stability (HLM); format: in vitro ADME, human; settings: pH 7.4; human liver microsomes 0.5 mg/mL, 1 μM test article; read-out: HLM Clint
Outline: as §2

[3] = Dog pharmacokinetic study (intravenous and oral); format: in vivo; settings: plasma, Beagle dogs, oral, 5 mg/kg, solution
Protocol: Pharmacokinetic profile of test articles in rodent were evaluated in fasted male ICR mouse and Sprague-Dawley rats. […] Typically, mice were dosed with 2 mg/kg and 10 mg/kg by intravenous injection and oral gavage, respectively. Rats were dosed with 1 mg/kg and 5 mg/kg by intravenous injection and oral gavage, respectively. Beagle dogs were dosed with 1 mg/kg and 5 mg/kg by intravenous injection and oral gavage, respectively. After dosing, blood samples were collected at each time point. For IV injection group, time points were set at 5, 15, 30 min, and then 1, 2, 4, 8 and 24 hours after dosing. For oral gavage group, timepoints were set at 15, 30 m, and then 1, 2, 4, 8, and 24 hours. Blood was collected into appropriately labeled tubes containing K2EDTA as the anticoagulant. Plasma was obtained within 1 hours of blood collection by centrifugation at 8000×g and 4° C. for 6 minutes, and then stored at −20° C. until analyzed by LCMS/MS for quantification.

[4] = Rat colon pharmacokinetic study (plasma, colon, colon + fecal content); format: in vivo; settings: SD rats, 10 mg/kg oral gavage; for Colon + Feces AUC: colon homogenized with fecal content; for Colon AUC: colon washed of fecal content; for AUC / Cmax / half-life: Sprague-Dawley (SD), rat; for AUC / Cmax: plasma; for half-life: in vivo
Protocol: The aim of this study was to obtain the pharmacokinetics of test articles in SD rats after oral administration. […] Rats were dosed with 10 mg/kg (1 mg/ml) via oral gavage. After dosing, blood and colon samples were collected at each time point (typically 0.5, 1, 3, 6, 24 hour). Blood was collected into appropriately labeled tubes containing K2EDTA as the anticoagulant. Plasma was obtained within one hour of blood collection by centrifugation at 8000g, 4-10° C. for 6 minutes, and then stored at −20° C. until analyzed by LC-MS/MS for quantification. Colon tissues were collected from exsanguinated rats at each time point. Collected colon tissue was divided into two parts. One part for the measurement of test articles in colon was washing three times by PBS to remove the fecal content before homogenization. The other part was homogenized with the fecal content for the measurement of test articles in colon and fecal content. Colon samples were homogenized in 1:5 (w/v) phosphate buffer (100 mM, pH 7.4). Homogenized samples were extracted with 3 fold volumes of acetonitrile and quantified against a standard curve with LC-MS/MS system.

[5] = Rat pharmacokinetic study (intravenous and oral); format: in vivo; settings: Sprague-Dawley rats, oral, 2 mg/kg, solution

Structure (SMILES) | IC50 (CYP1A2) [µM] | IC50 (CYP2C19) [µM] | IC50 (CYP3A4) [µM] | microsomal CLint at 1 μM [1] [µL/min/mg] | microsomal CLint at 1 μM [2] [µL/min/mg] | AUC [3] [ng·h/mL] | Cmax [3] [ng/mL] | bioavailability [3] [%] | half-life [3] [h] | Colon + Feces AUC [4] | Colon AUC [4] | AUC [4] [ng·h/mL] | Cmax [4] [ng/mL] | half-life [4] [h] | F [5] [%] | AUC ([5]; male, rat, plasma) [ng·h/mL] | Cmax ([5]; male, rat, plasma) [ng/mL] | half-life ([5]; male, rat, plasma) [h]
N#CCNC(=O)c1ccc(-c2nc(Nc3cnn(C4CC4)c3)ncc2Cl)cc1 [Example 95, 4-(5-Chloro-2-((1-cyclopropyl-1H-pyrazol-4-yl)amino)pyrimidin-4-yl)-N-(cyanomethyl)benzamide] | – | – | – | 31.1 | 8.84 | – | – | – | – | – | – | – | – | – | – | – | – | –
C[C@@H](C#N)NC(=O)c1ccc(-c2nc(Nc3cnn(C4CCN(C)CC4)c3)ncc2Cl)cc1 [Example 43, (S)-4-(5-Chloro-2-((1-(1-methylpiperidin-4-yl)-1H-pyrazol-4-yl)amino)pyrimidin-4-yl)-N-(1-cyanoethyl)benzamide] | > 50 | > 50 | > 50 | 101 | 15 | – | – | – | – | 559,570 h*ng/g | 3860 ng·h/g | 0.4 | 1.6 | – | – | – | – | –
Cn1cc(Nc2ncc(Cl)c(-c3ccc(C(=O)NCC#N)cc3)n2)cn1 [Example 34, 4-(5-Chloro-2-((1-methyl-1H-pyrazol-4-yl)amino)pyrimidin-4-yl)-N-(cyanomethyl)benzamide] | – | – | – | 31.6 | 12.3 | – | – | – | – | – | – | – | – | – | – | – | – | –
Cc1cnc(Nc2cnn(CC#N)c2)nc1-c1ccc(C(=O)NCC#N)cc1 [Example 4, N-(Cyanomethyl)-4-(2-((1-(cyanomethyl)-1H-pyrazol-4-yl)amino)-5-methylpyrimidin-4-yl)benzamide] | 45.8 | > 50 | > 50 | 16.4 | 1.22 | – | – | – | – | 545,501 h*ng/g | 6,623 h*ng/g | 96 | 68.8 | 1.6 | 1.9 | 29.8 | 40.4 | 0.38

Results, then the compound that gave them:

IC50 (CYP1A2) [µM] | IC50 (CYP2C19) [µM] | IC50 (CYP3A4) [µM] | microsomal CLint at 1 μM [1] [µL/min/mg] | microsomal CLint at 1 μM [2] [µL/min/mg] | AUC [3] [ng·h/mL] | Cmax [3] [ng/mL] | bioavailability [3] [%] | half-life [3] [h] | Colon + Feces AUC [4] | Colon AUC [4] | AUC [4] [ng·h/mL] | Cmax [4] [ng/mL] | half-life [4] [h] | F [5] [%] | AUC ([5]; male, rat, plasma) [ng·h/mL] | Cmax ([5]; male, rat, plasma) [ng/mL] | half-life ([5]; male, rat, plasma) [h] | Structure (SMILES)
> 50 | > 50 | 18.2 | 18.9 | 12 | 29.9 | 5.63 | 0.8 | 3.34 | – | – | – | – | – | – | – | – | – | CC[C@@H](C#N)NC(=O)c1ccc(-c2nc(Nc3cnn(C4CCNCC4)c3)ncc2Cl)cc1 [Example 183, (S)-4-(5-chloro-2-((1-(piperidin-4-yl)-1H-pyrazol-4-yl)amino)pyrimidin-4-yl)-N-(1-cyanopropyl)benzamide]
> 50 | > 50 | 41.5 | 26 | – | 27.9 | 11 | 0.9 | – | – | – | – | – | – | – | – | – | – | C[C@@H](C#N)NC(=O)c1ccc(-c2nc(Nc3cnn(C4CCNCC4)c3)ncc2Cl)cc1 [Example 165, (S)-4-(5-chloro-2-((1-(piperidin-4-yl)-1H-pyrazol-4-yl)amino)pyrimidin-4-yl)-N-(1-cyanoethyl)benzamide]
> 50 | > 50 | > 50 | – | – | 93.6 | 37.9 | 4.6 | 1.66 | 1,629,181 h*ng/g | 6898 ng·h/g | 23.7 | 16 | – | – | – | – | – | Cc1cnc(Nc2cnn(C3CCN(C(=O)CO)CC3)c2)nc1-c1ccc(C(=O)N[C@@H](C)C#N)cc1 [Example 119, (S)—N-(1-cyanoethyl)-4-(2-((1-(1-(2-hydroxyacetyl)piperidin-4-yl)-1H-pyrazol-4-yl)amino)-5-methylpyrimidin-4-yl)benzamide]
> 50 | > 50 | > 50 | 78.5 | 11.4 | 527 | 125 | 19.1 | 3.15 | 827,222 h*ng/g | 3,961 h*ng/g | 8.9 | 9.3 | 0.5 | – | – | – | – | CC[C@@H](C#N)NC(=O)c1ccc(-c2nc(Nc3cnn(C4CCN(C)CC4)c3)ncc2C)cc1 [Example 184, (S)—N-(1-Cyanopropyl)-4-(5-methyl-2-((1-(1-methylpiperidin-4-yl)-1H-pyrazol-4-yl)amino)pyrimidin-4-yl)benzamide]
> 50 | 6.36 | 19.6 | 73.9 | 203 | – | – | – | – | – | – | – | – | – | – | – | – | – | Cc1cnc(Nc2cnn(C3CC(C)(C)OC(C)(C)C3)c2)nc1-c1ccc(C(=O)NCC#N)cc1 [Example 113, N-(cyanomethyl)-4-(5-methyl-2-((1-(2,2,6,6-tetramethyltetrahydro-2H-pyran-4-yl)-1H-pyrazol-4-yl)amino)pyrimidin-4-yl)benzamide]
– | – | – | 28.4 | 21.9 | – | – | – | – | – | – | – | – | – | – | – | – | – | C[C@@H](C#N)NC(=O)c1ccc(-c2nc(Nc3cnn(C)c3)ncc2Cl)cc1 [Example 125, (S)-4-(5-chloro-2-((1-methyl-1H-pyrazol-4-yl)amino)pyrimidin-4-yl)-N-(1-cyanoethyl)benzamide]
